Test results published in ChEMBL document CHEMBL4308894, “Synthesis and evaluation of biological activity for dual-acting antibiotics on the basis of azithromycin and glycopeptides” (Bioorg Med Chem Lett, 2019).
Converted amounts (≈) assume the structure as drawn. The source made the active and inactive calls. No cut-off for these calls is given here.

Experiments:
Staphylococcus aureus [1] = experiment: Antibacterial activity against Staphylococcus aureus ATCC 25923 by micro dilution method; assay type: functional
Escherichia coli [2] = experiment: Antibacterial activity against Escherichia coli ATCC 25922 by micro dilution method; assay type: functional
Staphylococcus aureus [3] = experiment: Antibacterial activity against Staphylococcus aureus isolate 3797 by micro dilution method; assay type: functional
Enterococcus gallinarum = experiment: Antibacterial activity against Streptococcus gallinarum ATCC 35038 by micro dilution method; assay type: functional
Salmonella typhimurium = experiment: Antibacterial activity against Salmonella choleraesuis ATCC 14028 by micro dilution method; assay type: functional, Salmonella enterica subsp. enterica serovar Typhimurium; conditions: Salmonella enterica
Enterococcus faecalis = experiment: Antibacterial activity against Enterococcus faecalis isolate 560 by micro dilution method; assay type: functional
Staphylococcus aureus [4] = experiment: Antibacterial activity against Staphylococcus aureus isolate 10 by micro dilution method; assay type: functional
[5] = tested on: Staphylococcus epidermidis; experiment: Antibacterial activity against Staphylococcus epidermidis isolate 533 by micro dilution method; assay type: functional
Enterococcus faecium [6] = experiment: Antibacterial activity against Enterococcus faecium isolate 568 by micro dilution method; assay type: functional
Staphylococcus aureus [7] = experiment: Antibacterial activity against Staphylococcus aureus isolate 1025 by micro dilution method; assay type: functional
Enterococcus faecium [8] = experiment: Antibacterial activity against Enterococcus faecium isolate 569 by micro dilution method; assay type: functional
Klebsiella pneumoniae = experiment: Antibacterial activity against Klebsiella pneumoniae ATCC 13883 by micro dilution method; assay type: functional
Staphylococcus aureus [9] = experiment: Antibacterial activity against Staphylococcus aureus isolate 3798 by micro dilution method; assay type: functional
[10] = Half life in human serum; assay type: ADME, cell-free
Streptococcus pneumoniae = experiment: Antibacterial activity against Streptococcus pneumoniae ATCC 49619 by micro dilution method; assay type: functional
Escherichia coli [11] = experiment: Induction of translation arrest in tolC-deficient Escherichia coli harboring pRFPCER-TrpL2A assessed as increase in pRFPCER-TrpL2A reporter activity at 10 mg/ml after overnight incubation by dual fluorescent-reporter gene assay; assay type: functional, organism-based
Streptococcus agalactiae = experiment: Antibacterial activity against Streptococcus agalactiae isolate 52 by micro dilution method; assay type: functional
Staphylococcus aureus [12] = experiment: Antibacterial activity against Staphylococcus aureus isolate 10 infected in C57BL/6 mouse assessed as survival rate at 4.5 mg/kg, iv measured for 10 days (reference value: 0%); assay type: functional; conditions: isolate 10, iv, 240 h
Staphylococcus aureus [13] = experiment: Antibacterial activity against Staphylococcus aureus isolate 10 infected in C57BL/6 mouse assessed as survival rate at 2.5 mg/kg, iv measured for 10 days (reference value: 0%); assay type: functional; conditions: isolate 10, iv, 240 h
Staphylococcus aureus [14] = experiment: Antibacterial activity against Staphylococcus aureus isolate 10 infected in C57BL/6 mouse assessed as survival rate at 5.5 mg/kg, iv measured for 10 days (reference value: 0%); assay type: functional; conditions: isolate 10, iv, 240 h
Staphylococcus aureus [15] = experiment: Antibacterial activity against Staphylococcus aureus isolate 10 infected in iv dosed C57BL/6 mouse measured for 10 days; assay type: functional; conditions: isolate 10, iv, 240 h
Staphylococcus aureus [16] = experiment: Antibacterial activity against Staphylococcus aureus isolate 10 infected in C57BL/6 mouse assessed as survival rate at 7.5 mg/kg, iv measured for 10 days (reference value: 0%); assay type: functional; conditions: isolate 10, iv, 240 h
Staphylococcus aureus [17] = experiment: Antibacterial activity against Staphylococcus aureus isolate 10 infected in C57BL/6 mouse assessed as survival rate at 3.5 mg/kg, iv measured for 10 days (reference value: 0%); assay type: functional; conditions: isolate 10, iv, 240 h
Staphylococcus aureus [18] = experiment: Antibacterial activity against Staphylococcus aureus isolate 10 infected in C57BL/6 mouse assessed as survival rate at 6.5 mg/kg, iv measured for 10 days (reference value: 0%); assay type: functional; conditions: isolate 10, iv, 240 h

Compound	MIC (Staphylococcus aureus [1]) [µg/mL]	MIC (Escherichia coli [2]) [µg/mL]	MIC (Staphylococcus aureus [3]) [µg/mL]	MIC (Enterococcus gallinarum) [µg/mL]	MIC (Salmonella typhimurium) [µg/mL]	MIC (Enterococcus faecalis) [µg/mL]	MIC (Staphylococcus aureus [4]) [µg/mL]	MIC [5] [µg/mL]	MIC (Enterococcus faecium [6]) [µg/mL]	MIC (Staphylococcus aureus [7]) [µg/mL]	MIC (Enterococcus faecium [8]) [µg/mL]	MIC (Klebsiella pneumoniae) [µg/mL]	MIC (Staphylococcus aureus [9]) [µg/mL]	MIC (Streptococcus pneumoniae) [µg/mL]	Activity (Escherichia coli [11])	MIC (Streptococcus agalactiae) [µg/mL]	further results
CC[C@H]1OC(=O)[C@H](C)[C@@H](O[C@H]2C[C@@](C)(OC)[C@@H](O)[C@H](C)O2)[C@H](C)[C@@H](O[C@@H]2O[C@H](C)C[C@H](N(C)C)[C@H]2O)[C@](C)(O)C[C@@H](C)CN(C)[C@H](C)[C@@H](O)[C@]1(C)O [AZITHROMYCIN]	1 (≈ 1.34 µM)	8 (≈ 10.7 µM)	> 32	4 (≈ 5.34 µM)	16 (≈ 21.4 µM)	> 32	1 (≈ 1.34 µM)	2 (≈ 2.67 µM)	8 (≈ 10.7 µM)	16 (≈ 21.4 µM)	8 (≈ 10.7 µM)	16 (≈ 21.4 µM)	> 32	8 (≈ 10.7 µM)	Active	> 32	half-life [10]: 68 h
CC[C@H]1OC(=O)[C@H](C)[C@@H](O[C@H]2C[C@@](C)(OC)[C@@H](OC(=O)NCCNC(=O)[C@H]3NC(=O)[C@H]4NC(=O)[C@H](NC(=O)[C@@H]5NC(=O)[C@H](CC(N)=O)NC(=O)[C@H](NC(=O)[C@@H](CC(C)C)NC)[C@H](O)c6ccc(c(Cl)c6)Oc6cc5cc(c6O[C@@H]5O[C@H](CO)[C@@H](O)[C@H](O)[C@H]5O[C@H]5C[C@](C)(N)[C@H](O)[C@H](C)O5)Oc5ccc(cc5Cl)[C@H]4O)c4ccc(O)c(c4)-c4c(O)cc(O)cc43)[C@H](C)O2)[C@H](C)[C@@H](O[C@@H]2O[C@H](C)C[C@H](N(C)C)[C@H]2O)[C@](C)(O)C[C@@H](C)CN(C)[C@H](C)[C@H]2OC(=O)O[C@]21C	1 (≈ 0.436 µM)	> 32	4 (≈ 1.74 µM)	4 (≈ 1.74 µM)	> 32	32 (≈ 14 µM)	1 (≈ 0.436 µM)	1 (≈ 0.436 µM)	1 (≈ 0.436 µM)	> 32	> 32	> 32	> 32	1 (≈ 0.436 µM)	Active	32 (≈ 14 µM)	
CC[C@H]1OC(=O)[C@H](C)[C@@H](O[C@H]2C[C@@](C)(OC)[C@@H](OC(=O)NCCCNC(=O)[C@H]3NC(=O)[C@H]4NC(=O)[C@H](NC(=O)[C@@H]5NC(=O)[C@H](CC(N)=O)NC(=O)[C@H](NC(=O)[C@@H](CC(C)C)NC)[C@H](O)c6ccc(c(Cl)c6)Oc6cc5cc(c6O[C@@H]5O[C@H](CO)[C@@H](O)[C@H](O)[C@H]5O[C@H]5C[C@](C)(N)[C@H](O)[C@H](C)O5)Oc5ccc(cc5Cl)[C@H]4O)c4ccc(O)c(c4)-c4c(O)cc(O)cc43)[C@H](C)O2)[C@H](C)[C@@H](O[C@@H]2O[C@H](C)C[C@H](N(C)C)[C@H]2O)[C@](C)(O)C[C@@H](C)CN(C)[C@H](C)[C@H]2OC(=O)O[C@]21C	2 (≈ 0.867 µM)	> 32	4 (≈ 1.73 µM)	4 (≈ 1.73 µM)	> 32	32 (≈ 13.9 µM)	1 (≈ 0.434 µM)	2 (≈ 0.867 µM)	1 (≈ 0.434 µM)	> 32	> 32	> 32	> 32	1 (≈ 0.434 µM)	inactive	32 (≈ 13.9 µM)	
CC[C@H]1OC(=O)[C@H](C)[C@@H](O[C@H]2C[C@@](C)(OC)[C@@H](OC(=O)NCCNC(=O)[C@H]3NC(=O)[C@H]4NC(=O)[C@H](NC(=O)[C@@H]5NC(=O)[C@H](CC(N)=O)NC(=O)[C@H](NC(=O)[C@@H](CC(C)C)NC)[C@H](O)c6ccc(c(Cl)c6)Oc6cc5cc(c6O[C@@H]5O[C@H](CO)[C@@H](O)[C@H](O)[C@H]5O[C@H]5C[C@](C)(N)[C@H](O)[C@H](C)O5)Oc5ccc(cc5Cl)[C@H]4O[C@H]4C[C@](C)(N)[C@@H](O)[C@H](C)O4)c4ccc(O)c(c4)-c4c(O)cc(O)cc43)[C@H](C)O2)[C@H](C)[C@@H](O[C@@H]2O[C@H](C)C[C@H](N(C)C)[C@H]2O)[C@](C)(O)C[C@@H](C)CN(C)[C@H](C)[C@H]2OC(=O)O[C@]21C	1 (≈ 0.411 µM)	> 32	4 (≈ 1.64 µM)	4 (≈ 1.64 µM)	> 32	16 (≈ 6.57 µM)	0.06 (≈ 0.0246 µM)	2 (≈ 0.821 µM)	1 (≈ 0.411 µM)	8 (≈ 3.28 µM)	8 (≈ 3.28 µM)	> 32	8 (≈ 3.28 µM)	1 (≈ 0.411 µM)	Active	8 (≈ 3.28 µM)	survival at 4.5 mg/kg (Staphylococcus aureus [12]): 40%; survival at 2.5 mg/kg (Staphylococcus aureus [13]): 30%; survival at 5.5 mg/kg (Staphylococcus aureus [14]): 70%; ED50 (Staphylococcus aureus [15]): 4.7 mg/kg; survival at 7.5 mg/kg (Staphylococcus aureus [16]): 80%; survival at 3.5 mg/kg (Staphylococcus aureus [17]): 20%; survival at 6.5 mg/kg (Staphylococcus aureus [18]): 70%
